These results are taken from ChEMBL document CHEMBL1275376, “Development, validation, and use of quantitative structure-activity relationship models of 5-hydroxytryptamine (2B) receptor ligands to identify novel receptor binders and putative valvulopathic compounds among common drugs” (J Med Chem, 2010).

The structures appear in SMILES notation. Some results are limits rather than exact numbers.

Usually Ki stands for a measure of affinity in units of concentration, obtained from inhibition or displacement. Higher therefore signals a looser hold on the target. As usually defined, the EC50 is the concentration that produces a half-maximal response.

For the first assay, the target named is T1, 5-hydroxytryptamine receptor 2B (Homo sapiens, UniProt P41595). Description: Displacement of [3H]LSD from human cloned 5HT2B receptor expressed in CHO cells by liquid scintillation counting. It is filed as cell-based. For orientation: Displacement assays read how much labelled ligand stays bound in the presence of the test substance.
T1 sequence (P41595 whole entry): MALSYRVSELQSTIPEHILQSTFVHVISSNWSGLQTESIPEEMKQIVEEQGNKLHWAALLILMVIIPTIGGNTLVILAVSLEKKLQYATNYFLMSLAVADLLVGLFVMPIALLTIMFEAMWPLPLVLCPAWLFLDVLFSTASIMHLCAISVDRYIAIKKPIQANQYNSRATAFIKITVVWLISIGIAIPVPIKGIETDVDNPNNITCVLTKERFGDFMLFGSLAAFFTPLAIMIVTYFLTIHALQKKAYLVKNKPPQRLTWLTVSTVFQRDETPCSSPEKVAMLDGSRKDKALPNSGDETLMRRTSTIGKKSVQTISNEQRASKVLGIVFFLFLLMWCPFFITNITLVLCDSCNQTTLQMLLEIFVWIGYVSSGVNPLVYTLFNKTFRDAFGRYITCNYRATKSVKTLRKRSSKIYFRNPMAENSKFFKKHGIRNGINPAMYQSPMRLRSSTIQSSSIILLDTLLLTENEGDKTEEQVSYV
Consider `CC(NCCC(c1ccccc1)c1ccccc1)c1ccccc1` (centres undefined) [FENDILINE], for which the Ki was 3220 nM. That is a single-digit micromolar value.

`COc1ccc2[nH]c3c(c2c1)CCNC3C` (centres undefined) [ADRENOGLOMERULOTROPIN] returned a Ki of 491 nM.

`Cn1ccc2cc3c(cc21)CCN3C(=O)Nc1cccnc1` yielded a Ki of 4.3 nM.

The molecule `Fc1ccc(N2CCN(CCC3OCCc4ccccc43)CC2)cc1` (centres undefined) came in with a Ki of 69.6 nM.

For `NC(=O)N1c2ccccc2CC(O)c2ccccc21` (centres undefined) [LICARBAZEPINE], the Ki is > 10000 nM.

`COc1ccc2[nH]cc(CN)c2c1` yielded a Ki of 1620 nM.

The molecule `CC[C@@H](CO)NC(=O)[C@@H]1C=C2c3cccc4[nH]cc(c34)C[C@H]2N(C)C1` [METHYLERGONOVINE] returned a Ki of 0.8 nM. This Ki lies about 2000-fold lower than the previous one.

`COc1cc2c(CCNC(C)=O)c[nH]c2cc1F` yielded a Ki of 2500 nM.

The target in another assay is T1, 5-hydroxytryptamine receptor 2B. The assay is described as follows: Agonist at human 5HT2B receptor expressed in HEK293 cells assessed as induction of calcium influx by FLIPR assay. The class given is functional, cell-based.
With `CC[C@@H](CO)NC(=O)[C@@H]1C=C2c3cccc4[nH]cc(c34)C[C@H]2N(C)C1` [METHYLERGONOVINE], the EC50 was 21.4 nM.
